Results reported in patent publication US20200268832A1, “COMPOSITIONS FOR DELIVERY TO AND TREATMENT OF ATHEROSCLEROTIC PLAQUES” (Sanford Burnham Prebys Medical Discovery Institute, priority 2015, published 2020).
“Also recorded” adds a separate entry of the source.

Columns and labels:
p32 protein [1] = target: T1, p32 protein (Homo sapiens, UniProt Q07021); experiment: NMR 1D 1H-aliph spectra of p32 with compounds; format: binding; conditions: 5 μM p32; compounds 100 and 500 μM; TT1 70 μM
T1 construct: 6xHis; host or cells: Rosetta-gami-2 cells (Novagen); an E. coli strain by own knowledge
T1 sequence (Q07021 74-282): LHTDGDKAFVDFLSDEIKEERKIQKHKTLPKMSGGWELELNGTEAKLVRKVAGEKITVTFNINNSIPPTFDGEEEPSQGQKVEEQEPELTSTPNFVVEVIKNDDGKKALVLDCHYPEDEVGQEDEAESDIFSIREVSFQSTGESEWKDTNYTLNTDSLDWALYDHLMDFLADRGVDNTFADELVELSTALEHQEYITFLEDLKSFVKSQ
Protocol: FIGS. 3A and 3B are graphs showing NMR based evaluation of binding of compounds 4014008 and 7933989 to P32 protein. The ID ^1H-aliph spectra of 5 μM P32 in the absence (bottom) and presence of compounds #4014008 (A) and #7933989 (B) at 100 μM (second from bottom) and 500 μM (second from top) were collected. As a control, the spectrum of p32 in the presence of the known peptide binder, TT1 at 70 μM, was also collected (top).
All the NMR experiments were carried out on a Bruker Avance 700 spectrometer equipped with a TCI cryoprobe at T=293 K. For structure determinations, the peptide concentration was 100 μM in the NMR buffer in presence of 150 μM of ZnCl2. One-dimensional (1D) 1H spectra were acquired with a spectral width of 8417.51 Hz, relaxation delay 1.0 s, 8 k data points for acquisition and 16 k for transformation.

atherosclerotic plaques = experiment: Plaque homing of FAM-labeled #008-NWs in atherosclerotic mouse; format: in vivo; conditions: 1 mg/ml, 200 μl, IV, two hours circulation; listed as #008
b1b2 domain of NRP-1 = target: T2, b1b2 domain of NRP-1 (Homo sapiens, UniProt O14786); experiment: Fluorescence polarization displacement of FAM-RPARPAR from NRP-1; format: binding; conditions: specificity assay, up to 100 μM
T2 sequence (O14786 273-586 limits assumed): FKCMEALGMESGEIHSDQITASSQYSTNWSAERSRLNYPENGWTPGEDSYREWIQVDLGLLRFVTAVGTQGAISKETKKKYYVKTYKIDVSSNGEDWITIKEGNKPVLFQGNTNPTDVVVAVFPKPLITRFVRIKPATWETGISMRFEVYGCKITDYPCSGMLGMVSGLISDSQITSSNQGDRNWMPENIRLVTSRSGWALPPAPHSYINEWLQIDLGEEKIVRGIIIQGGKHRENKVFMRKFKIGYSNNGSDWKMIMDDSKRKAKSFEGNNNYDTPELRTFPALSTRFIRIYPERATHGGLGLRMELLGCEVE
Protocol: Results of the high-throughput screen were confirmed in dose response tests. 8.25 μM to 100 μM dilutions of the compounds that displaced FAM-peptide from p32 were used in competition with FAM-peptide as described in previous section. Specificity of the hit compounds was verified by examining their binding to a different protein, b1b2 domain of NRP-1 (Vander Kooi et al., Proc. Natl. Acad. Sci. U.S.A., 10.1073/pnas.0700043104). Experimental method for NRP-1 b1b2 was developed and validated similarly to p32, using FAM-RPARPAR peptide as a known peptide ligand for NRP-1. The displacement of FAM-RPARPAR from NRP-1 protein by the hit compounds was studied in 384-well format, as described above.

p32 protein [2] = target: T1, p32 protein; experiment: TT1 phage binding inhibition assay (ELISA-type); conditions: 100 μM compound
Protocol: The binding of individual phage to p32 was verified using ELISA-type of phage binding assay. 96-well plates (Corning Life Sciences, Tewksbury, Mass., USA) were coated with 100 μL of 5 μg/mL p32 in PBS at 4° C. overnight, washed 3 times with 200 μL of PBST (PBS+0.05% Tween-20), blocked with 200 μL of 0.5% bovine serum albumin (BSA) in PBST for 1 h at 37° C., and washed 3 times with PBST. Phages (1.11*10^8 pfu in 100 μL PBST) were added to p32-coated/BSA-blocked wells, the plate was incubated at 4° C. overnight, and washed 3 times with PBST. Subsequently, the plates were incubated with 100 μL in-house prepared polyclonal rabbit anti-T7 antibody diluted 1:1000 in PBST for 1 h at 4° C., and washed 3 times with washing buffer. Horseradish peroxidase (HRP)-labeled anti-rabbit IgG (Sigma-Aldrich) was diluted 1:1000 in PBS, and 100 μL was added to the wells, followed by 1 h incubation at 4° C. and washing 3 times. Next, 100 μL of OPD silver and gold substrate (Sigma-Aldrich) was added to the wells and incubated at room temperature until visible color was observed (<30 min). The reaction was stopped by adding 50 μL of 1M H2SO4, and the plate was read at 492 nm (Varioskan Flash, Thermo Scientific, Waltham, Mass., USA).
The ability to inhibit TT1-phage binding to p32 protein was used as a secondary assay to verify the hit compounds. The competition assay was based on the phage binding assay described above with minor modifications. ELISA plates were coated with 2.5 μg/mL p32, incubated with phages (1.11*10^8 pfu in 100 μL PBST) and 100 μM hit compounds at 4° C. overnight, and followed by antibody incubation and chromogenic reaction. Negative controls included DMSO at concentration it was used to dissolve the hit compounds.

## Cc1cnccc1NCCN [Compound 4014008, N-(3-methylpyridin-4-yl)ethane-1,2-diamine]
p32 protein [1]
  perturbations in 1D 1H-aliphatic spectra of p32: caused similar perturbations; also recorded: shift in the peak at around −0.3 ppm
Atherosclerotic plaques
  nanoparticle homing/accumulation in plaques: specifically home; also recorded: directs nanoparticle accumulation in plaques
b1b2 domain of NRP-1
  effect on RPARPAR peptide binding to NRP-1: no effect
p32 protein [2]
  inhibition at 100 µM: 50%
